Source: paper PMC6450568 (Bioorganic & medicinal chemistry letters, 2019)
Where a name gives a salt, the structure may show the parent alone. Read-outs that look alike come from different tables or passages of the source.

What was measured:
[1] = target: T1, native MDH (malate dehydrogenase) reporter enzyme (Sus scrofa, UniProt P00346); test: Native MDH enzymatic reporter counter-screen; format: biochemical
T1 sequence (P00346 25-338): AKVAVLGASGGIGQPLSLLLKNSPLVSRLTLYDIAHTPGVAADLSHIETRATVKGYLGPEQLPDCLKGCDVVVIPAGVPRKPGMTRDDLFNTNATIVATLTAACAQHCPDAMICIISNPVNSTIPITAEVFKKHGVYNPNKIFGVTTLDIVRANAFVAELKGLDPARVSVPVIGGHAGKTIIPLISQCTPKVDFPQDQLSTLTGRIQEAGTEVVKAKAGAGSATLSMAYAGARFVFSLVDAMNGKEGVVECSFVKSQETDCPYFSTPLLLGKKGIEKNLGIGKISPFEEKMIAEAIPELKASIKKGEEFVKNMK

[2] = target: T2, native Rho (rhodanese) reporter enzyme (Bos taurus, UniProt P00586); test: Native Rho enzymatic reporter counter-screen; format: biochemical
T2 sequence (P00586 2-297 limits assumed): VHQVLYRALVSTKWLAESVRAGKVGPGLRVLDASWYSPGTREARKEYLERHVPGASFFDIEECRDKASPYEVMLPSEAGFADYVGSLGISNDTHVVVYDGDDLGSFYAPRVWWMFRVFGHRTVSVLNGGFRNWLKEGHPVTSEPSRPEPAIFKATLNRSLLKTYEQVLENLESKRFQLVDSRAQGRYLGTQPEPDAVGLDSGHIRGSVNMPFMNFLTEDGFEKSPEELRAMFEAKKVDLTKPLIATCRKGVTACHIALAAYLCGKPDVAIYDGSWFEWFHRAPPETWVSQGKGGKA

[3] = target: T3, E. coli GroEL/ES chaperonin system (Escherichia coli, UniProt P0A6F5); test: biochemical
E. coli GroEL = E. coli GroEL (Escherichia coli, UniProt P0A6F5); test: Isothermal Titration Calorimetry of suramin binding to GroEL; conditions: ITC, average of triplicate analyses
[4] = target: T3, E. coli GroEL/ES chaperonin system; test: High-throughput screens of LOPAC and MicroSource Spectrum libraries; format: biochemical; conditions: both GroEL/ES-dMDH and GroEL/ES-dRho screens, single concentration
[5] = target: T3, E. coli GroEL/ES chaperonin system; test: biochemical; remark: listed apart in the source
[6] = target: human HSP60/10 chaperonin system (Homo sapiens, UniProt P10809); test: HSP60/10-dMDH refolding assay; format: biochemical
GroEL ATPase = GroEL ATPase (Escherichia coli, UniProt P0A6F5); test: biochemical
[7] = Biochemical Assay IC50, GroEL/ES-mediated refolding of dMDH, dose-response

Chain of E. coli GroEL (P0A6F5 2-548): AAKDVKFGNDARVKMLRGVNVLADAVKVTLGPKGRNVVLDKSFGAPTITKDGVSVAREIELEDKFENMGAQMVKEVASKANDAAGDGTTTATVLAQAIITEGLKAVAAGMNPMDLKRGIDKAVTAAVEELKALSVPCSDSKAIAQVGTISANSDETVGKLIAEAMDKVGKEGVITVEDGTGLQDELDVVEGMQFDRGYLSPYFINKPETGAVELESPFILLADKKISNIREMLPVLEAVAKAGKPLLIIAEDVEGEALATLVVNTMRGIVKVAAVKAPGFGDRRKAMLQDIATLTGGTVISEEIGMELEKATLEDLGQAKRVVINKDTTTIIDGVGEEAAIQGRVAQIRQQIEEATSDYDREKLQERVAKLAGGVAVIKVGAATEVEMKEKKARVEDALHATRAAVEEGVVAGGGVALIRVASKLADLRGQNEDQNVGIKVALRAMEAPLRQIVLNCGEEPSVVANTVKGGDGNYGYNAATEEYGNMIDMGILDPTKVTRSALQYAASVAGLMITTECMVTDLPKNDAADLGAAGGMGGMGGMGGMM
T3 sequence (P0A6F5 2-548): as above
Chain of GroEL ATPase (P0A6F5 2-548): as above
Chain of human HSP60/10 chaperonin system (P10809 27-573): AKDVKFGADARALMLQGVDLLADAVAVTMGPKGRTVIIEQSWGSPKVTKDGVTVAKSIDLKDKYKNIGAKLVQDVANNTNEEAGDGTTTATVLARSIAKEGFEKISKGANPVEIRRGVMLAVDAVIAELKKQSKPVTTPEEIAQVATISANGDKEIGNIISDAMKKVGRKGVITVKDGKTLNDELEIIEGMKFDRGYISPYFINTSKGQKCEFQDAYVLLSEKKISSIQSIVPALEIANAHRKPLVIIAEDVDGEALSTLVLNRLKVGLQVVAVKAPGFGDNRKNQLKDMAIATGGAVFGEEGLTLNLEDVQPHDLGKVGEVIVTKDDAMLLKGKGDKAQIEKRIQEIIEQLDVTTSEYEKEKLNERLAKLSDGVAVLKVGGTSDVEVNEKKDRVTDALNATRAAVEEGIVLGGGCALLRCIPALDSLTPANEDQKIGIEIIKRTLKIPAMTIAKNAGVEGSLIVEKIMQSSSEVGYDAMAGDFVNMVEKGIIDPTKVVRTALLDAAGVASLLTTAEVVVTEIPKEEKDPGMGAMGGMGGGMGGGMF

| IC50 [1] [µM] | IC50 [2] [µM] | SMILES | other results |
| --- | --- | --- | --- |
| > 63 |  | COc1cc(/C=C/C(=O)CC(=O)/C=C/c2ccc(O)c(OC)c2)ccc1O [Compound 4, Curcumin] |  |
| > 63 |  | Cc1cc2nc3c(=O)[nH]c(=O)nc-3n(C[C@H](O)[C@H](O)[C@H](O)COP(=O)(O)O)c2cc1C [Compound 50, Riboflavin-5-phosphate sodium salt] |  |
|  | > 100 | O=C(O)C1=CC(=C(c2ccc(O)c(C(=O)O)c2)c2ccc(O)c(C(=O)O)c2)C=CC1=O [Compound 13, Aurintricarboxylic acid] |  |
| > 63 | > 100 | C=CC1=C(C)c2cc3[nH]c(cc4nc(cc5[nH]c(cc1n2)c(C)c5CCC(=O)O)C(CCC(=O)O)=C4C)c(C)c3C=C [Compound 5, Protoporphyrin IX] |  |
| > 63 | > 100 | COc1ccc(C(=O)/C=C/c2ccccc2)cc1 [Compound 35, 4’-Methoxychalcone] |  |
| > 63 | > 100 | C[C@H](CCC(=O)O)[C@H]1CC[C@H]2[C@@H]3CC[C@@H]4C[C@H](O)CC[C@]4(C)[C@H]3CC[C@]12C [Compound 38, Lithocholic acid] |  |
| > 63 | > 100 | Oc1ccc(Cl)cc1Cc1cc(Cl)ccc1O [Compound 45, Dichlorophen] |  |
| > 63 | > 100 | CC[C@H](C)C1O[C@]2(C=C[C@@H]1C)C[C@@H]1C[C@@H](C/C=C(\C)[C@@H](O[C@H]3C[C@H](OC)[C@@H](O[C@H]4C[C@H](OC)[C@H](NC(C)=O)[C@H](C)O4)[C@H](C)O3)[C@@H](C)/C=C/C=C3\CO[C@@H]4[C@H](O)C(C)=C[C@@H](C(=O)O1)[C@]34O)O2 (some centres unmarked) [Compound 33, Eprinomectin] |  |
| > 63 |  | CC1(C)CCC2=C(O1)c1ccccc1C(=O)C2=O [Compound 15, β-laphachone] |  |
| > 63 |  | CCCCCCCCCCCCCCCC(=O)OC[C@H](O)[C@H]1OC(=O)C(O)=C1O [Compound 20, L-Ascorbyl palmitate] |  |
| > 63 | > 100 | C=C(CC)C(=O)c1ccc(OCC(=O)O)c(Cl)c1Cl [Compound 6, Ethacrynic acid] |  |
| > 63 | > 100 | CC(C)(C)NCC(O)c1ccc(O)c(CO)c1 (centres unmarked) [Compound 57, Albuterol] |  |
| > 63 | > 100 | O=C(/C=C/c1ccccc1)c1ccc(O)cc1 [Compound 44, 4’-Hydroxychalcone] |  |
| > 63 |  | COc1cc(NC(C)CCCN)c2ncccc2c1 (centres unmarked) [Compound 49, Primiquine] |  |
| > 63 | > 100 | COc1ccc(-c2ccc3cc(C(=O)O)ccc3c2)cc1C12CC3CC(CC(C3)C1)C2 [Compound 3, Adapalene] |  |
| > 63 | > 100 | CCCCN1CCC(COC(=O)c2cc(Cl)c(N)c3c2OCCO3)CC1 [Compound 59, SB 204070] |  |
| > 63 |  | C=C1CC[C@H](O)C/C1=C/C=C1\CCC[C@]2(C)[C@@H]([C@H](C)/C=C/[C@H](C)C(C)C)CC[C@@H]12 [Compound 46, Calciferol (Vtamin D2)] |  |
| > 63 |  | O=C1c2ccccc2C(=O)c2c(O)c(O)cc(O)c21 [Compound 37, Purpurin] |  |
| > 63 | > 100 | CCc1oc2ccccc2c1C(=O)c1cc(Br)c(O)c(Br)c1 [Compound 40, Benzbromarone] |  |
| > 63 | > 100 | CCCCC/C=C\C/C=C\C/C=C\C/C=C\CCCC(=O)O [Compound 27, Arachidonic acid] |  |
| > 63 | > 100 | CCCCCCCCCCCCCCCCC(C(=O)O)C(O)(CC(=O)O)C(=O)O (centres unmarked) [Compound 7, Agaric acid] |  |
| > 63 | > 100 | CCOc1nc2cccc(C(=O)O)c2n1Cc1ccc(-c2ccccc2-c2nnn[nH]2)cc1 [Compound 56, Candesartan] |  |
|  | > 100 | Oc1c(Cl)cc(Cl)cc1Sc1cc(Cl)cc(Cl)c1O [Compound 29, Bithionol] |  |
| > 63 |  | CN(C)c1ccc(C(=C2C=CC(=[N+](C)C)C=C2)c2ccc(N(C)C)cc2)cc1 [Compound 34, Crystal violet] |  |
| > 63 | > 100 | CC[C@H]1OC(=O)[C@H](C)[C@@H](O[C@H]2C[C@@](C)(OC)[C@@H](O)[C@H](C)O2)[C@H](C)[C@@H](O[C@@H]2O[C@H](C)C[C@H](N(C)C)[C@H]2O)[C@](C)(O)C[C@@H](C)C(=O)[C@H](C)[C@@H](O)[C@]1(C)O [Compound 55, (−)-Erythromycin] |  |
| > 63 |  | CC1=CC(=O)c2ccccc2C1=O [Compound 30, Menadione] |  |

| SMILES | IC50 [1] [µM] | IC50 [2] [µM] | other results |
| --- | --- | --- | --- |
| CCCCCCCCCCCCCCCC[N+](C)(C)C [Compound 11, Hexadecyltrimethylammonium bromide] | > 63 | > 100 |  |
| CC[C@H](C)[C@H]1O[C@]2(C=C[C@@H]1C)C[C@@H]1C[C@@H](C/C=C(\C)[C@@H](O[C@H]3C[C@H](OC)[C@@H](O[C@H]4C[C@H](OC)[C@@H](O)[C@H](C)O4)[C@H](C)O3)[C@@H](C)/C=C/C=C3\CO[C@@H]4[C@H](O)C(C)=C[C@@H](C(=O)O1)[C@]34O)O2 [Compound 32, Abamectin (Avermectin b1a)] | > 63 | > 100 |  |
| C=C(NC(=O)C(=C)NC(=O)c1csc(C2=N[C@@H]3c4csc(n4)[C@H]4NC(=O)c5csc(n5)[C@H]([C@](C)(O)[C@@H](C)O)NC(=O)[C@H]5CSC(=N5)/C(=C/C)NC(=O)[C@H]([C@@H](C)O)NC(=O)c5csc(n5)[C@]3(CC2)NC(=O)[C@H](C)NC(=O)C(=C)NC(=O)[C@H](C)NC(=O)[C@H]([C@@H](C)CC)N[C@@H]2C=Cc3c([C@H](C)O)cc(nc3[C@H]2O)C(=O)O[C@@H]4C)n1)C(N)=O [Compound 24, Thiostrepton] | > 63 | > 100 |  |
| CC1=CC(=O)c2c(O)cccc2C1=O [Compound 21, Plumbagin] | > 63 |  |  |
| Cc1ccc(C(=O)Nc2ccc(S(=O)(=O)O)c3cc(S(=O)(=O)O)cc(S(=O)(=O)O)c23)cc1NC(=O)c1cccc(NC(=O)Nc2cccc(C(=O)Nc3cc(C(=O)Nc4ccc(S(=O)(=O)O)c5cc(S(=O)(=O)O)cc(S(=O)(=O)O)c45)ccc3C)c2)c1 [Compound 28, Suramin] | > 63 | > 100 | IC50 ([3]; Assay IC50, GroEL/ES-dMDH Refolding, Table 1): 8.1 µM; IC50 [3, 7]: 8.1 µM; IC50 ([3]; IC50 values for inhibiting GroEL/ES refolding functions, approximate, dMDH and dRho refolding assays together): 10 to 15 µM; Kd (E. coli GroEL): 21 µM; Log(Kd/μM) (E. coli GroEL): 1.31 ± 0.30; TΔS (E. coli GroEL): 4.15 ± 0.72 kcal/mol; ΔG (E. coli GroEL): -6.22 ± 0.41 kcal/mol; ΔH (E. coli GroEL): -2.07 ± 0.36 kcal/mol; ΔS (E. coli GroEL): 0.014 ± 0.002 kcal/mol·K; Stoichiometry n, Molecule : GroEL oligomer (E. coli GroEL; per GroEL tetradecamer, listed as Suramin (28)): 9.4 ± 0.6; Stoichiometry n, Molecule : GroEL monomer (E. coli GroEL; single-site binding model): 0.67 ± 0.05; inhibition cutoff in primary and secondary high-throughput screens [4]: did not meet the 50% inhibition cutoff |
| CC[n+]1c(-c2ccccc2)c2cc(N)ccc2c2ccc(N)cc21 [Compound 51, Ethidium bromide] | > 63 |  |  |
| C=C1CC[C@H](O)C/C1=C/C=C1\CCC[C@]2(C)[C@@H]([C@H](C)CCCC(C)C)CC[C@@H]12 [Compound 41, Cholecalciferol (vtamin D3)] | > 63 | > 100 |  |
| CC(C)n1c(/C=C/C(O)CC(O)CC(=O)O)c(-c2ccc(F)cc2)c2ccccc21 (centres unmarked) [Compound 60, Fluvastatin sodium] | > 63 | > 100 | IC50 [5]: > 250 µM; IC50 [3, 7]: > 100 µM; IC50 [6]: > 100 µM; IC50 (GroEL ATPase): > 250 µM |
| COc1cc(-c2ccc(/N=N/c3ccc4c(S(=O)(=O)O)cc(S(=O)(=O)O)c(N)c4c3O)c(OC)c2)ccc1/N=N/c1ccc2c(S(=O)(=O)O)cc(S(=O)(=O)O)c(N)c2c1O [Compound 22, Pontamine sky blue] | > 63 |  | IC50 [6]: 6.8 µM; IC50 (GroEL ATPase): > 250 µM |
| O=c1c(O)c(-c2ccc(O)c(O)c2)oc2c(O)c(O)cc(O)c12 [Compound 18, Gossypetin] | > 63 |  |  |
| Cc1cc(C(C#N)c2ccc(Cl)cc2)c(Cl)cc1NC(=O)c1cc(I)cc(I)c1O (centres unmarked) [Compound 16, Closantel] |  | > 100 |  |
| CC(COc1ccccc1)N(CCCl)Cc1ccccc1 (centres unmarked) [Compound 47, Phenoxybenzamine HCl] | > 63 | > 100 |  |
| O=C(/C=C/c1ccc(O)cc1)c1ccccc1 [Compound 43, 4-Hydroxychalcone] | > 63 | > 100 |  |
